Measured values reported in the supplement of paper PMC10307832.

Columns and labels:
Experiment in all cases: relative viability (nuclei count vs DMSO), 5 days (fraction); higher = more cells survive
PAC-1 + Tozasertib = compound: C=CCc1cccc(/C=N/NC(=O)CN2CCN(Cc3ccccc3)CC2)c1O [PAC-1] + Cc1cc(Nc2cc(N3CCN(C)CC3)nc(Sc3ccc(NC(=O)C4CC4)cc3)n2)n[nH]1 [Tozasertib] (partner 0.1 µM)
Outline: (§1)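 One day after seeding in 1536-well plates, lung cancer cell lines were dosed by pin tool. Dosing was either single-drug or a fixed anchor-drug dose plus five library-drug doses (not always all listed) in √10 steps. After 5 days, nuclei were stained in one fix-and-stain step and counted on 4× images, and relative viability is the nuclei count of treated wells over that of vehicle wells, given as the median of duplicate plates.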

PAC-1 + Linsitinib = compound: C=CCc1cccc(/C=N/NC(=O)CN2CCN(Cc3ccccc3)CC2)c1O [PAC-1] + C[C@]1(O)C[C@@H](c2nc(-c3ccc4ccc(-c5ccccc5)nc4c3)c3c(N)nccn32)C1 [Linsitinib] (partner 1 µM)
Outline: as §1

Ibrutinib + Crizotinib = compound: C=CC(=O)N1CCC[C@@H](n2nc(-c3ccc(Oc4ccccc4)cc3)c3c(N)ncnc32)C1 [Ibrutinib] + C[C@@H](Oc1cc(-c2cnn(C3CCNCC3)c2)cnc1N)c1c(Cl)ccc(F)c1Cl [Crizotinib] (partner 1 µM)
Outline: as §1

Ibrutinib + Decitabine = compound: C=CC(=O)N1CCC[C@@H](n2nc(-c3ccc(Oc4ccccc4)cc3)c3c(N)ncnc32)C1 [Ibrutinib] + Nc1ncn([C@H]2C[C@H](O)[C@@H](CO)O2)c(=O)n1 [Decitabine] (partner 2 µM)
Outline: as §1

201T
relative viability (PAC-1 + Tozasertib; first compound 0.02 µM): 0.876
relative viability (PAC-1 + Tozasertib; first compound 0.06325 µM): 1
relative viability (PAC-1 + Tozasertib; first compound 0.2 µM): 0.956
relative viability (PAC-1 + Tozasertib; first compound 2 µM): 0.883
relative viability (PAC-1 + Linsitinib; first compound 0.02 µM): 1.08
relative viability (PAC-1 + Linsitinib; first compound 0.06325 µM): 0.991
relative viability (PAC-1 + Linsitinib; first compound 0.2 µM): 1.02
relative viability (PAC-1 + Linsitinib; first compound 2 µM): 1
relative viability (Ibrutinib + Crizotinib; first compound 0.005 µM): 1.03
relative viability (Ibrutinib + Crizotinib; first compound 0.01581 µM): 1.02
relative viability (Ibrutinib + Crizotinib; first compound 0.05 µM): 1.03
relative viability (Ibrutinib + Crizotinib; first compound 0.1581 µM): 1.04
relative viability (Ibrutinib + Crizotinib; first compound 0.5 µM): 1.04
relative viability (Ibrutinib + Decitabine; first compound 0.005 µM): 0.827
relative viability (Ibrutinib + Decitabine; first compound 0.01581 µM): 0.842
relative viability (Ibrutinib + Decitabine; first compound 0.05 µM): 0.881
relative viability (Ibrutinib + Decitabine; first compound 0.1581 µM): 0.83
relative viability (Ibrutinib + Decitabine; first compound 0.5 µM): 0.799

A549
relative viability (PAC-1 + Linsitinib; first compound 0.02 µM): 0.527
relative viability (PAC-1 + Linsitinib; first compound 0.06325 µM): 0.612
relative viability (PAC-1 + Linsitinib; first compound 0.2 µM): 0.523
relative viability (PAC-1 + Linsitinib; first compound 2 µM): 0.583
relative viability (Ibrutinib + Crizotinib; first compound 0.005 µM): 0.814
relative viability (Ibrutinib + Crizotinib; first compound 0.01581 µM): 0.649
relative viability (Ibrutinib + Crizotinib; first compound 0.05 µM): 0.639
relative viability (Ibrutinib + Crizotinib; first compound 0.1581 µM): 0.708
relative viability (Ibrutinib + Crizotinib; first compound 0.5 µM): 0.661
relative viability (Ibrutinib + Decitabine; first compound 0.005 µM): 0.249
relative viability (Ibrutinib + Decitabine; first compound 0.01581 µM): 0.243
relative viability (Ibrutinib + Decitabine; first compound 0.05 µM): 0.311
relative viability (Ibrutinib + Decitabine; first compound 0.1581 µM): 0.225
relative viability (Ibrutinib + Decitabine; first compound 0.5 µM): 0.186

A-427
relative viability (PAC-1 + Tozasertib; first compound 0.02 µM): 0.176
relative viability (PAC-1 + Tozasertib; first compound 0.06325 µM): 0.209
relative viability (PAC-1 + Tozasertib; first compound 0.2 µM): 0.231
relative viability (PAC-1 + Tozasertib; first compound 2 µM): 0.2
relative viability (PAC-1 + Linsitinib; first compound 0.02 µM): 1.14
relative viability (PAC-1 + Linsitinib; first compound 0.06325 µM): 1.14
relative viability (PAC-1 + Linsitinib; first compound 0.2 µM): 1.15
relative viability (PAC-1 + Linsitinib; first compound 2 µM): 1.08
relative viability (Ibrutinib + Crizotinib; first compound 0.005 µM): 0.89
relative viability (Ibrutinib + Crizotinib; first compound 0.01581 µM): 0.87
relative viability (Ibrutinib + Crizotinib; first compound 0.05 µM): 1.03
relative viability (Ibrutinib + Crizotinib; first compound 0.1581 µM): 0.875
relative viability (Ibrutinib + Crizotinib; first compound 0.5 µM): 0.832
relative viability (Ibrutinib + Decitabine; first compound 0.005 µM): 0.59
relative viability (Ibrutinib + Decitabine; first compound 0.01581 µM): 0.574
relative viability (Ibrutinib + Decitabine; first compound 0.05 µM): 0.576
relative viability (Ibrutinib + Decitabine; first compound 0.5 µM): 0.549

ABC-1
relative viability (PAC-1 + Tozasertib; first compound 0.02 µM): 0.144
relative viability (PAC-1 + Tozasertib; first compound 0.06325 µM): 0.186
relative viability (PAC-1 + Tozasertib; first compound 0.2 µM): 0.197
relative viability (PAC-1 + Tozasertib; first compound 2 µM): 0.195
relative viability (PAC-1 + Linsitinib; first compound 0.02 µM): 0.791
relative viability (PAC-1 + Linsitinib; first compound 0.06325 µM): 0.746
relative viability (PAC-1 + Linsitinib; first compound 0.2 µM): 0.822
relative viability (PAC-1 + Linsitinib; first compound 2 µM): 1.02
relative viability (Ibrutinib + Crizotinib; first compound 0.005 µM): 1.21
relative viability (Ibrutinib + Crizotinib; first compound 0.01581 µM): 1.03
relative viability (Ibrutinib + Crizotinib; first compound 0.05 µM): 1.57
relative viability (Ibrutinib + Crizotinib; first compound 0.1581 µM): 1.56
relative viability (Ibrutinib + Crizotinib; first compound 0.5 µM): 1.03
relative viability (Ibrutinib + Decitabine; first compound 0.005 µM): 0.973
relative viability (Ibrutinib + Decitabine; first compound 0.01581 µM): 0.929
relative viability (Ibrutinib + Decitabine; first compound 0.5 µM): 1.19

BEN
relative viability (PAC-1 + Tozasertib; first compound 0.02 µM): 0.621
relative viability (PAC-1 + Tozasertib; first compound 0.06325 µM): 0.541
relative viability (PAC-1 + Tozasertib; first compound 0.2 µM): 0.511
relative viability (PAC-1 + Tozasertib; first compound 2 µM): 0.466
relative viability (PAC-1 + Linsitinib; first compound 0.02 µM): 0.934
relative viability (PAC-1 + Linsitinib; first compound 0.06325 µM): 0.91
relative viability (PAC-1 + Linsitinib; first compound 0.2 µM): 0.918
relative viability (PAC-1 + Linsitinib; first compound 2 µM): 0.873
relative viability (Ibrutinib + Crizotinib; first compound 0.005 µM): 0.952
relative viability (Ibrutinib + Crizotinib; first compound 0.01581 µM): 0.962
relative viability (Ibrutinib + Crizotinib; first compound 0.05 µM): 0.803
relative viability (Ibrutinib + Crizotinib; first compound 0.1581 µM): 0.67
relative viability (Ibrutinib + Crizotinib; first compound 0.5 µM): 0.943
relative viability (Ibrutinib + Decitabine; first compound 0.005 µM): 0.454
relative viability (Ibrutinib + Decitabine; first compound 0.01581 µM): 0.817
relative viability (Ibrutinib + Decitabine; first compound 0.05 µM): 0.687
relative viability (Ibrutinib + Decitabine; first compound 0.1581 µM): 0.521
relative viability (Ibrutinib + Decitabine; first compound 0.5 µM): 0.646

CAL-12T
relative viability (PAC-1 + Tozasertib; first compound 0.02 µM): 0.265
relative viability (PAC-1 + Tozasertib; first compound 0.06325 µM): 0.315
relative viability (PAC-1 + Tozasertib; first compound 0.2 µM): 0.327
relative viability (PAC-1 + Tozasertib; first compound 2 µM): 0.293
relative viability (PAC-1 + Linsitinib; first compound 0.02 µM): 0.925
relative viability (PAC-1 + Linsitinib; first compound 0.06325 µM): 0.823
relative viability (PAC-1 + Linsitinib; first compound 0.2 µM): 0.669
relative viability (PAC-1 + Linsitinib; first compound 2 µM): 0.808
relative viability (Ibrutinib + Crizotinib; first compound 0.01581 µM): 0.589
relative viability (Ibrutinib + Crizotinib; first compound 0.05 µM): 0.582
relative viability (Ibrutinib + Crizotinib; first compound 0.1581 µM): 0.718
relative viability (Ibrutinib + Crizotinib; first compound 0.5 µM): 0.301

COR-L23
relative viability (PAC-1 + Tozasertib; first compound 0.02 µM): 0.203
relative viability (PAC-1 + Tozasertib; first compound 0.06325 µM): 0.304
relative viability (PAC-1 + Tozasertib; first compound 0.2 µM): 0.192
relative viability (PAC-1 + Tozasertib; first compound 2 µM): 0.214
relative viability (PAC-1 + Linsitinib; first compound 0.02 µM): 0.945
relative viability (PAC-1 + Linsitinib; first compound 0.06325 µM): 0.937
relative viability (PAC-1 + Linsitinib; first compound 0.2 µM): 0.861
relative viability (PAC-1 + Linsitinib; first compound 2 µM): 1.03
relative viability (Ibrutinib + Crizotinib; first compound 0.005 µM): 0.707
relative viability (Ibrutinib + Crizotinib; first compound 0.01581 µM): 0.641
relative viability (Ibrutinib + Crizotinib; first compound 0.05 µM): 0.693
relative viability (Ibrutinib + Crizotinib; first compound 0.1581 µM): 0.644
relative viability (Ibrutinib + Crizotinib; first compound 0.5 µM): 0.653
relative viability (Ibrutinib + Decitabine; first compound 0.005 µM): 0.428
relative viability (Ibrutinib + Decitabine; first compound 0.01581 µM): 0.433
relative viability (Ibrutinib + Decitabine; first compound 0.05 µM): 0.473
relative viability (Ibrutinib + Decitabine; first compound 0.1581 µM): 0.461
relative viability (Ibrutinib + Decitabine; first compound 0.5 µM): 0.525

COR-L 105
relative viability (PAC-1 + Tozasertib; first compound 0.02 µM): 0.318
relative viability (PAC-1 + Tozasertib; first compound 0.06325 µM): 0.323
relative viability (PAC-1 + Tozasertib; first compound 0.2 µM): 0.383
relative viability (PAC-1 + Tozasertib; first compound 2 µM): 0.374
relative viability (PAC-1 + Linsitinib; first compound 0.02 µM): 0.962
relative viability (PAC-1 + Linsitinib; first compound 0.06325 µM): 0.852
relative viability (PAC-1 + Linsitinib; first compound 0.2 µM): 0.868
relative viability (PAC-1 + Linsitinib; first compound 2 µM): 1.13
relative viability (Ibrutinib + Crizotinib; first compound 0.005 µM): 0.654
relative viability (Ibrutinib + Crizotinib; first compound 0.01581 µM): 0.846
relative viability (Ibrutinib + Crizotinib; first compound 0.05 µM): 0.472
relative viability (Ibrutinib + Crizotinib; first compound 0.1581 µM): 0.9
relative viability (Ibrutinib + Crizotinib; first compound 0.5 µM): 0.235
relative viability (Ibrutinib + Decitabine; first compound 0.005 µM): 0.632
relative viability (Ibrutinib + Decitabine; first compound 0.01581 µM): 0.534
relative viability (Ibrutinib + Decitabine; first compound 0.05 µM): 0.431
relative viability (Ibrutinib + Decitabine; first compound 0.1581 µM): 0.689
relative viability (Ibrutinib + Decitabine; first compound 0.5 µM): 0.403

Calu-6
relative viability (PAC-1 + Linsitinib; first compound 0.02 µM): 0.826
relative viability (PAC-1 + Linsitinib; first compound 0.06325 µM): 0.902
relative viability (PAC-1 + Linsitinib; first compound 2 µM): 0.962
relative viability (Ibrutinib + Crizotinib; first compound 0.005 µM): 0.911
relative viability (Ibrutinib + Crizotinib; first compound 0.01581 µM): 0.576
relative viability (Ibrutinib + Crizotinib; first compound 0.05 µM): 0.802
relative viability (Ibrutinib + Crizotinib; first compound 0.1581 µM): 0.723
relative viability (Ibrutinib + Crizotinib; first compound 0.5 µM): 0.872

ChaGo-K-1
relative viability (PAC-1 + Tozasertib; first compound 0.02 µM): 0.214
relative viability (PAC-1 + Tozasertib; first compound 0.06325 µM): 0.217
relative viability (PAC-1 + Tozasertib; first compound 0.2 µM): 0.223
relative viability (PAC-1 + Tozasertib; first compound 2 µM): 0.218
relative viability (Ibrutinib + Crizotinib; first compound 0.005 µM): 1.18
relative viability (Ibrutinib + Crizotinib; first compound 0.01581 µM): 1.05
relative viability (Ibrutinib + Crizotinib; first compound 0.05 µM): 1.16
relative viability (Ibrutinib + Crizotinib; first compound 0.5 µM): 1.06
relative viability (Ibrutinib + Decitabine; first compound 0.005 µM): 0.503
relative viability (Ibrutinib + Decitabine; first compound 0.01581 µM): 0.484
relative viability (Ibrutinib + Decitabine; first compound 0.05 µM): 0.544
relative viability (Ibrutinib + Decitabine; first compound 0.1581 µM): 0.524
relative viability (Ibrutinib + Decitabine; first compound 0.5 µM): 0.54

EBC-1
relative viability (PAC-1 + Linsitinib; first compound 0.02 µM): 0.832
relative viability (PAC-1 + Linsitinib; first compound 0.06325 µM): 0.923
relative viability (PAC-1 + Linsitinib; first compound 0.2 µM): 0.821
relative viability (PAC-1 + Linsitinib; first compound 2 µM): 0.86
relative viability (Ibrutinib + Crizotinib; first compound 0.005 µM): 0.199
relative viability (Ibrutinib + Crizotinib; first compound 0.01581 µM): 0.21
relative viability (Ibrutinib + Crizotinib; first compound 0.05 µM): 0.205
relative viability (Ibrutinib + Crizotinib; first compound 0.1581 µM): 0.188
relative viability (Ibrutinib + Crizotinib; first compound 0.5 µM): 0.162
